According to patent US20070014739A1, “Compositions and methods for controlling biofilms and bacterial infections” (priority 2005, published 2007):

What was measured:
[1] = tested on: P. aeruginosa; assay: Biofilm inhibition, comparison of scaffold modifications; type: cell-based; conditions: effect of modifying corosolic acid at C-19, or at C-3 and C-20
[2] = Bladder concentrations in rats (pharmacokinetic study); conditions: rat, in vivo; rats, 50 mg/kg oral single bolus in 50% Labrasol, at 24 hours; read-out: Concentrations in the bladder
Protocol: Pharmacokinetic studies of asiatic acid and madecassic acid in rats were performed separately. Asiatic acid and madecassic acid were evaluated at 50 mg/kg (oral). Two animals were assigned to the each group. Prior to dosing, a baseline blood sample was taken from each animal. At time zero for asiatic acid and madecassic acid, a single bolus dose in 50% Labrasol (Gattefosse) was given to each animal. Bladders were analyzed at 24 hours. Concentrations of both asiatic acid and madecassic acid in the bladder were approximately 30 μg/g at 24 hours.

[3] = tested on: E. coli laboratory strain JM109; assay: Inhibition of biofilm formation, crystal violet, 96 well plates; type: cell-based; conditions: Escherichia coli, JM 109, compared to the controls, read-out: inhibited biofilm formation of the JM109 strain
Protocol: Biofilm inhibition experiments were conducted using an assay adapted from the reported protocol described in Pratt and Kolter, 1998, Molecular Microbiology, 30: 285-293; Li et al., 2001, J. Bacteriol., 183: 897-908. E. coli clinical strain UT189 was grown in LB in 96 well plates at room temperature for one or two days without shaking. E. coli laboratory strain JM109 was grown in LB plus 0.2% glucose in 96 well plates at room temperature for one day without shaking. To quantify the biofilm mass, the suspension culture was poured out and the biofilm was washed three times with water. The biofilm was stained with 0.1% crystal violet for 20 minutes. The plates were then washed three times with water. OD reading at 540 nm was measured to quantify the biofilm mass at the bottom of the wells. Then 95% ethanol was added to dissolve the dye at the bottom and on the wall and the OD reading at 540 nm was measured to quantify the total biofilm mass. To study the overall effect of the compounds (3.6 mg/mL in 100% ethanol as stock solution), it was added with the inoculation and a time course of biofilm mass was measured. Appropriate amounts of 100% ethanol were added to each sample to eliminate the effect of solvent. Each condition had 3-4 replicates on each plate and was performed over multiple days.

[4] = tested on: P. aeruginosa strain PAO1; assay: Rotating disk reactor (RDR) biofilm test with and without tobramycin, culturable bacteria; type: cell-based, Pseudomonas aeruginosa; conditions: test compound 100 μg/ml 24 h, average of three days
Protocol: Biofilm formation of P. aeruginosa was evaluated using a standardized biofilm method with a rotating disk reactor (RDR). This method provides a model resembling the formation of biofilms in cystic fibrosis patients. The rotating disk reactor consists of a one-liter glass beaker fitted with a drain spout. The bottom of the vessel contains a magnetically driven rotor with six 1.27 cm diameter coupons constructed from polystyrene. The rotor consists of a star-head magnetic stir bar upon which a disk was affixed to hold the coupons. The vessel with the stir bar was placed on a stir plate and rotated to provide fluid shear. A nutrient solution (AB Trace Medium with 0.3 mM glucose, see Table 3 below for composition) was added through a stopper in the top of the reactor at a flow rate of 5 ml/min. The reactor volume was approximately 180 ml and varied slightly between reactors depending on the placement of the drain spout and the rotational speed of the rotor. At a volume of 180 ml, the residence time of the reactors was 36 minutes. The reactors were operated at room temperature (c.a. 26° C.).
For each test, two RDRs were operated in parallel with one receiving test compound and the other serving as an untreated control. The RDRs were sterilized by autoclave, then filled with sterile medium and inoculated with P. aeruginosa strain PAO1. The reactors were then incubated at room temperature in batch mode (no medium flow) for a period of 24 hours, after which the flow was initiated for a further 24 hour incubation. Test compounds were dissolved in 10 ml ethanol to achieve a concentration of 1.8 mg/ml. After the 48 hours of biofilm development described above, the 10 ml of ethanol containing the test compounds were added to the reactor to achieve a final concentration of approximately 50, 100, or 200 μg/ml. Control reactors received 10 ml of ethanol. The reactors were then incubated for an additional 24 hours in batch (no flow) mode. After this incubation period, the six coupons were removed from each reactor and placed in 12-well polystyrene tissue culture plates with wells containing either 2 ml of a 100 μg/ml tobramycin solution or 2 ml of phosphate-buffered saline (PBS). These plates were incubated at room temperature for two hours. The coupons were then rinsed by three transfers to plates containing 2 ml of fresh PBS. For each two RDR reactors run in parallel, four sets of three coupons were obtained: one set with no test compound treatment and no tobramycin treatment, one set with no test compound treatment and tobramycin treatment, one set treated with a test compound treatment and no tobramycin treatment, and one set treated with a test compound treatment and tobramycin. After rinsing, one coupon of each set of three was stained with a LIVE/DEAD® BacLight™ Bacterial Viability Kit (Molecular Probes, Eugene Oreg.) and imaged using epifluorescent microscopy. The remaining two coupons were placed in 10 ml of PBS and sonicated for five minutes to remove and disperse biofilm cells. The resulting bacterial suspensions were then serially diluted in PBS and plated on tryptic soy agar plates for enumeration of culturable bacteria. The plates were incubated for 24 hours at 37° C. before colony forming units (CFU) were determined.
The results are averages from experiments performed on three separate days for each test compound. The values reported are as loglo CFU.

[5] = tested on: S. aureus; conditions: U.S. Pat. No. 4,606,911; cited from earlier work
[6] = tested on: S. salivaris; conditions: U.S. Pat. No. 4,606,911; cited from earlier work
[7] = tested on: P. aeruginosa; conditions: U.S. Pat. No. 4,606,911; cited from earlier work
[8] = tested on: S. mutans; conditions: U.S. Pat. No. 4,606,911; cited from earlier work
[9] = tested on: E. coli; conditions: U.S. Pat. No. 4,606,911; cited from earlier work
[10] = tested on: E. coli clinical strain UT189 against bladder epithelial cells; assay: Binding to and invasion of bladder epithelial cells by E. coli; type: cell-based; conditions: 40 μg/ml, 60 minutes; separate experiments (n=4 to 7)
Protocol: The effect of test compounds on bacterial invasion of E. coli clinical strain UT189 was studied as described in Elsinghorst, et al. 1994, Methods Enzymol, 236:405-420; and Martinez et al., 2000, EMBO J., 19:2803-2812. Epithelial bladder cells were grown in plates. Asiatic acid, corosolic acid, or ursolic acid were added at concentrations of 10 μg/ml, 20 μg/ml, or 40 μg/ml to bacteria and epithelial cells for approximately 5, 15, 30, or 60 minutes with approximately 10^7 CFU of E. coli. Binding was assessed at time zero and invasion was assessed at approximately 5, 15, 30, or 60 minutes from completing the mixture of compound, bacteria, and epithelial cells. As a control ethanol was added to cells to a final concentration of 0.1%. The effect of bacterial viability and bacterial adherence during the infection period was evaluated according to the methods described in Martinez et al., 2000, EMBO J., 19:2803-2812.

[11] = tested on: E. coli UT189[pCOMGFP]; assay: Biofilm pods (IBCs) in bladders of infected mice, intravesical compound, confocal microscopy; type: in vivo, Escherichia coli; conditions: experiment 1: C3H/HeN mice, 40 μg/ml intravesical with 30 min pre-incubation, 10^8 CFU, five hours; vs controls
Protocol: The procedures in this example has been previously reported by Justice, S. et al. Differentiation and development pathways of uropathogenic Escherichia coli in urinary tract pathogenesis. PNAS, 2004, 101(5), p. 1333-1338. Briefly, E. coli UT189[pCOMGFP] was prepared after retrieval from frozen stocks by inoculating appropriately in LB medium statically for approximately 20 hours. Cells were harvested and suspended in 1 ml of PBS. Cells were diluted appropriately to achieve approximately a 10^8 CFU or 10^7 CFU input into C3H/HeN mice (2 mice per group).
Mice were deprived of water for approximately two hours. In experiment 1, all mice were anesthetized with 0.15 cc ketamine cocktail. In experiment 2, all mice were anesthetized with isofluorane. In experiment 1, urine was dispelled from the bladders and approximately 40 μg/ml of test compound or an appropriate amount of ethanol as control was introduced into the bladders via catheterization of the urethra using a tubing coated tuberculin syringe. 30 minutes was allowed to elapse. In experiment 2, bladders were not pre-incubated with test compounds. Bladders were then expelled and an inoculum of 10^8 CFU (Experiment 1) or 10^7 CFU (Experiment 2) of E. coli containing 40 μg/ml of test compound or equivalent amount of ethanol as controls were introduced into the bladders as indicated above.
In experiment 1 five hours elapsed and in experiment 2 six hours elapsed, and then mice were anesthetized and sacrificed appropriately. The bladders were removed, bisected, stretched, and fixed in 3% paraformaldehyde for 1 hour at room temperature. Bladders were then permeabilized in 0.01% Triton/PBS for 10 minutes and counter stained with TOPRO3 (Molecular Probes) for 10 minutes for visualization by confocal microscopy. Bladders were mounted on Prolong antifade (Molecular Probes).

| SMILES | biofilm inhibition against P. aeruginosa relative to corosolic acid [1] | growth inhibition of S. aureus [5] | growth inhibition of S. salivaris [6] | growth inhibition of P. aeruginosa [7] | growth inhibition of S. mutans [8] | growth inhibition of E. coli [9] | also measured |
| --- | --- | --- | --- | --- | --- | --- | --- |
| C[C@@H]1CC[C@]2(C(=O)O)CC[C@]3(C)C(=CC[C@@H]4[C@@]5(C)C[C@@H](O)[C@H](O)C(C)(C)[C@@H]5CC[C@]43C)[C@@H]2[C@]1(C)O [Tormentic acid] | slightly reduces the biofilm inhibition | – | – | – | – | – | – |
| C[C@H]1[C@H](C)CC[C@]2(C(=O)O)CC[C@]3(C)C(=CC[C@@H]4[C@@]5(C)C[C@@H](O)[C@H](O)[C@@](C)(CO)[C@@H]5[C@H](O)C[C@]43C)[C@H]12 [Madecassic acid] | – | – | – | – | – | – | concentration at 24 h [2]: ~30000 ng/g; inhibition at 5 µg/mL ([3]; 5 ug/ml): ~60%; inhibition at 10 µg/mL ([3]; 10 ug/ml): ~75%; CFU, Test Compound ([4]; no tobramycin): 7.5 loglo CFU; CFU, Tobramycin and Test Compound ([4]; then tobramycin 100 μg/ml 2 h): 5.5 loglo CFU |
| CC1(C)CC[C@]2(C(=O)O)CC[C@]3(C)C(=CC[C@@H]4[C@@]5(C)CC[C@H](O)C(C)(C)[C@@H]5CC[C@]43C)[C@@H]2C1 [Oleanolic acid] | – | failed to inhibit | incomplete inhibition | failed to inhibit | incomplete inhibition | failed to inhibit | – |
| C[C@@H]1[C@H]2C3=CCC4[C@@]5(C)CC[C@H](OC(=O)/C=C\c6ccc(O)cc6)C(C)(C)C5CC[C@@]4(C)[C@]3(C)CC[C@@]2(C(=O)O)CC[C@]1(C)O (stereo partly drawn) [3-[4-Hydroxycinnamoyl (cis-)], 20-hydroxy-ursolic acid] | increases biofilm inhibition | – | – | – | – | – | – |
| C[C@@H]1CC[C@]2(C(=O)O)CC[C@]3(C)C(=CCC4[C@@]5(C)CC[C@H](O)C(C)(C)C5CC[C@]43C)C2[C@H]1C (stereo partly shown) [Ursolic acid] | – | failed to inhibit | completely inhibited | failed to inhibit | completely inhibited | failed to inhibit | reduced invasion of E. coli into bladder epithelial cells [10]: 76%; reduction in biofilm pods or IBCs in the bladders of mice [11]: 70% |
